Where a name gives a salt, the structure may show the parent alone.
What was measured:
[1] = target: T1, Stearoyl-CoA Desaturase (SCD1) (Mus musculus, UniProt P13516); assay: SCD microsomal assay: release of 3H2O from [9,10-3H]stearoyl-CoA in mouse liver microsomes; format: biochemical; conditions: 15 min incubation, 25° C.
T1 construct: Reactions are started by adding 50 μL of microsomes (1.25 mg/mL); from tissue; host or cells: liver microsomes of male ICR outbred mice on a high-carbohydrate, low-fat diet
T1 sequence (P13516 1-355): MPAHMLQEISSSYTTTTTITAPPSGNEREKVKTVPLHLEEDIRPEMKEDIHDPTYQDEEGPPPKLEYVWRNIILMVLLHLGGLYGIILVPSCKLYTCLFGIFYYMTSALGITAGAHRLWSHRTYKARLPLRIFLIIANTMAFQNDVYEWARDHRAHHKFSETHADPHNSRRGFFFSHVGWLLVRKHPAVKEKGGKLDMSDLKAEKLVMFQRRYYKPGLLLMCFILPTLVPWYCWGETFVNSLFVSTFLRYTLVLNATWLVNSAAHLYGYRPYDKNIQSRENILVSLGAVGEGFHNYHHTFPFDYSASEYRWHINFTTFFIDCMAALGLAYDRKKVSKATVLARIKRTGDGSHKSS
Source text: Measuring Stearoyl-CoA Desaturase Inhibition Activity of a Test Compound Using Mouse Liver Microsomes
The identification of compounds of the invention as SCD inhibitors was readily accomplished using the SCD microsomal assay procedure described in Shanklin J. and Summerville C., Proc. Natl. Acad. Sci. USA (1991), Vol. 88, pp. 2510-2514.
Male ICR outbread mice, on a high-carbohydrate, low fat diet, under light halothane (15% in mineral oil) anesthesia are sacrificed by exsanguination during periods of high enzyme activity. Livers are immediately rinsed with cold 0.9% NaCl solution, weighed and minced with scissors. All procedures are performed at 4° C. unless specified otherwise. Livers are homogenized in a solution (1/3 w/v) containing 0.25 M sucrose, 62 mM potassium phosphate buffer (pH 7.0), 0.15 M KCl, 15 mM N-acetyleysteine, 5 mM MgCl2, and 0.1 mM EDTA using 4 strokes of a Potter-Elvehjem tissue homogenizer. The homogenate is centrifuged at 10,400×g for 20 min to eliminate mitochondria and cellular debris. The supernatant is filtered through a 3-layer cheesecloth and centrifuged at 105,000×g for 60 min. The microsomal pellet is gently resuspended in the same homogenization solution with a small glass/teflon homogenizer and stored at −70° C. The absence of mitochondrial contamination is enzymatically assessed. The protein concentration is measured using bovine serum albumin as the standard.
Desaturase activity is measured as the release of ^3H2O from [9,10-^3H]stearoyl-CoA. Reactions per assay point conditions are as follows: 2 μL 1.5 mM stearoyl-CoA, 0.25 μL 1 mCi/mL ^3H stearoyl CoA, 10 μL 20 mM NADH, 36.75 μL 0.1 M PK buffer (K2HPO4/NaH2PO4, pH 7.2). The test compound or control solution is added in a 1 μL volume. Reactions are started by adding 50 μL of microsomes (1.25 mg/mL). The plates are mixed and after 15 min incubation on a heating block (25° C.), the reactions are stopped by the addition of 10 μL 60% PCA. An aliquot of 100 μL is then transferred to a filter plate pretreated with charcoal and the plate centrifuged at 4000 rpm for 1 minute. The flow through containing the ^3H2O released by the SCD1 desaturation reaction is added to scintillation fluid and the radioactivity measured in a Packard TopCount. The data is analysed to identify the IC50 for test compounds and reference compounds.

Row | SMILES | IC50 [1] | melting point
1 | COc1cccc(C(=O)Nc2cc(C(=O)NCc3ccccc3)ccn2)c1 [Example 6.4, N-benzyl-2-(3-methoxybenzamido)isonicotinamide] | 0.13 µM | 95 to 96 °C
2 | O=C(NCc1ccccc1)c1ccnc(NC(=O)c2cc(F)cc(F)c2)c1 [Example 6.8, N-benzyl-2-(3,5-difluorobenzamido)isonicotinamide] | 0.41 µM | 185 to 187 °C
3 | CN(C)c1ccc(C(=O)Nc2cc(C(=O)NCc3ccccc3)ccn2)cc1 [Example 6.11, N-benzyl-2-(4-(dimethylamino)benzamido)isonicotinamide] | 0.02 µM | 160 to 165 °C
4 | O=C(Nc1cc(-c2nc(Cc3ccccc3)c[nH]2)ccn1)c1ccccc1 [Example 10.2, N-(4-(4-benzyl-1H-imidazol-2-yl)pyridin-2-yl)benzamide] | 0.17 µM | 110 to 112 °C
5 | O=C(NCc1cocn1)c1ccnc(N2CCN(Cc3ccc(F)cc3)C2=O)c1 [Example 14, 2-(3-(4-fluorobenzyl)-2-oxoimidazolidin-1-yl)-N-(oxazol-4-ylmethyl)isonicotinamide] | 0.2 µM | 197 to 199 °C
6 | Cc1cnc(CNC(=O)c2ccnc(N3CCN(Cc4ccc(F)cc4)C3=O)c2)cn1 [Example 14.2, 2-(3-(4-fluorobenzyl)-2-oxoimidazolidin-1-yl)-N-((5-methylpyrazin-2-yl)methyl)isonicotinamide] | 0.08 µM | 169 to 171 °C
7 | Cn1cnc(CNC(=O)c2ccnc(N3CCN(Cc4ccc(F)cc4)C3=O)c2)c1 [Example 14.5, 2-(3-(4-fluorobenzyl)-2-oxoimidazolidin-1-yl)-N-((1-methyl-1H-imidazol-4-yl)methyl)isonicotinamide] | 0.19 µM | 174 to 176 °C
8 | Cc1cc(CNC(=O)c2ccnc(N3CCN(Cc4ccc(F)cc4)C3=O)c2)no1 [Example 14.10, 2-(3-(4-fluorobenzyl)-2-oxoimidazolidin-1-yl)-N-((5-methylisoxazol-3-yl)methyl)isonicotinamide] | 0.26 µM | 153 to 155 °C
9 | O=C(NCc1ccccn1)c1ccnc(N2CCN(Cc3ccc(F)cc3)C2=O)c1 [Example 15.3, 2-(3-(4-fluorobenzyl)-2-oxoimidazolidin-1-yl)-N-(pyridin-2-ylmethyl)isonicotinamide dihydrochloride] | 0.07 µM | 
10 | O=C(NCc1ccc(F)cc1)c1ccnc(N2CCN(Cc3ccc(F)cc3)C2=O)c1 [Example 15.4, N-(4-fluorobenzyl)-2-(3-(4-fluorobenzyl)-2-oxoimidazolidin-1-yl)isonicotinamide] | 0.02 µM | 173 to 175 °C
11 | O=C(NCc1ccncc1)c1ccnc(N2CCN(CC3CC3)C2=O)c1 [Example 15.11, 2-(3-(cyclopropylmethyl)-2-oxoimidazolidin-1-yl)-N-(pyridin-4-ylmethyl)isonicotinamide] | 0.67 µM | 160 to 162 °C
12 | O=C(NCc1ccc(F)c(F)c1)c1ccnc(N2CCN(Cc3cccnc3)C2=O)c1 [Example 15.17, N-(3,4-difluorobenzyl)-2-(2-oxo-3-(pyridin-3-ylmethyl)imidazolidin-1-yl)isonicotinamide] | 0.26 µM | 178 to 180 °C
13 | O=C(NCc1nccs1)c1ccnc(N2CCN(Cc3ccc(C(F)(F)F)cc3)C2=O)c1 [Example 23, 2-(2-Oxo-3-(4-(trifluoromethyl)benzyl)imidazolidin-1-yl)-N-(thiazol-2-ylmethyl)isonicotinamide] | 0.01 µM | 139 to 141 °C
14 | Cc1cc(CNC(=O)c2ccnc(-n3cnn(Cc4ccc(F)c(F)c4)c3=O)c2)no1 [Example 24, 2-(1-(3,4-Difluorobenzyl)-5-oxo-1H-1,2,4-triazol-4(5H)-yl)-N-((5-methylisoxazol-3-yl)methyl)-isonicotinamide] | 0.02 µM | 160 to 161 °C
15 | O=C(NCc1ccccn1)c1ccnc(N2CCN(Cc3ccc(F)c(F)c3)C2=O)c1 [Example 25, 2-(3-(3,4-Difluorobenzyl)-2-oxoimidazolidin-1-yl)-N-(pyridin-2-ylmethyl)-isonicotinamide] | 0.02 µM | 99 to 101 °C
16 | O=C(NCc1ccccn1)c1ccnc(N2CCN(Cc3ccc(C(F)(F)F)cc3)C2=O)c1 [Example 26.12, 2-(2-Oxo-3-(4-(trifluoromethyl)benzyl)imidazolidin-1-yl)-N-(pyridin-2-ylmethyl)-isonicotinamide] | 0.01 µM | 161 to 163 °C
17 | Cc1cc(CNC(=O)c2ccnc(N3CCN(Cc4ccc(OC(F)(F)F)cc4)C3=O)c2)no1 [Example 26.13, N-((5-Methylisoxazol-3-yl)methyl)-2-(2-oxo-3-(4-(trifluoromethoxy)-benzyl)imidazolidin-1-yl)isonicotinamide] | 0.01 µM | 129 to 130 °C
18 | O=C(NCc1ccccn1)c1ccnc(N2CCN(Cc3ccc(OC(F)(F)F)cc3)C2=O)c1 [Example 26.15, 2-(2-Oxo-3-(4-(trifluoromethoxy)benzyl)imidazolidin-1-yl)-N-(pyridin-2-ylmethyl)-isonicotinamide] | 0.05 µM | 123 to 125 °C
19 | Cc1cc(CNC(=O)c2ccnc(N3CCN(Cc4ccc(C(F)(F)F)cc4)C3=O)c2)no1 [Example 26.18, N-((5-Methylisoxazol-3-yl)methyl)-2-(2-oxo-3-(4-(trifluoromethyl)-benzyl)imidazolidin-1-yl)isonicotinamide] | 0.01 µM | 153 to 155 °C
20 | O=C(NCc1cncs1)c1ccnc(N2CCN(Cc3ccc(C(F)(F)F)cc3)C2=O)c1 [Example 26.19, 2-(2-Oxo-3-(4-(trifluoromethyl)benzyl)imidazolidin-1-yl)-N-(thiazol-5-ylmethyl)-isonicotinamide] | 0.01 µM | 163 to 165 °C
21 | Cc1cc(CNC(=O)c2ccnc(-n3cnn(Cc4ccc(F)cc4)c3=O)c2)no1 [Example 26.22, 2-(1-(4-Fluorobenzyl)-5-oxo-1H-1,2,4-triazol-4(5H)-yl)-N-((5-methylisoxazol-3-yl)methyl)-isonicotinamide] | 0.01 µM | 198 to 200 °C
22 | Cc1cc(CNC(=O)c2ccnc(N3CCN(Cc4ccc(F)c(F)c4)C3=O)c2)no1 [Example 26.23, 2-(3-(3,4-Difluorobenzyl)-2-oxoimidazolidin-1-yl)-N-((5-methylisoxazol-3-yl)methyl)-isonicotinamide] | 0.01 µM | 153 to 155 °C
23 | O=C(NCc1ccccn1)c1ccnc(-n2cnn(Cc3ccc(F)cc3)c2=O)c1 [Example 26.27, 2-(1-(4-Fluorobenzyl)-5-oxo-1H-1,2,4-triazol-4(5H)-yl)-N-(pyridin-2-ylmethyl)-isonicotinamide] | 0.12 µM | 181 to 183 °C
24 | O=C(NCc1ccccn1)c1ccnc(-n2cnn(Cc3ccc(F)c(F)c3)c2=O)c1 [Example 26.29, 2-(1-(3,4-Difluorobenzyl)-5-oxo-1H-1,2,4-triazol-4(5H)-yl)-N-(pyridin-2-ylmethyl)-isonicotinamide] | 0.03 µM | 
25 | NC(=O)c1ccnc(N2CCN(Cc3ccc(F)c(F)c3)C2=O)c1 [Example 26.30, 2-(3-(3,4-Difluorobenzyl)-2-oxoimidazolidin-1-yl)isonicotinamide] | 1.1 µM | 195 to 198 °C
26 | NC(=O)c1ccnc(N2CCN(Cc3ccc(C(F)(F)F)cc3)C2=O)c1 [Example 26.31, 2-(2-Oxo-3-(4-(Trifluoromethyl)-benzyl)imidazolidin-1-yl)isonicotinamide] | 0.18 µM | 167 to 169 °C
27 | NC(=O)c1ccnc(N2CCN(Cc3ccc(OC(F)(F)F)cc3)C2=O)c1 [Example 26.32, 2-(2-Oxo-3-(4-(trifluoromethoxy)-benzyl)imidazolidin-1-yl)isonicotinamide] | 1.2 µM | 175 to 176 °C
